A flash point compilation (Sun et al. 2020)
Where a name gives a salt, the structure may show the parent alone.

Work on `C=CC1CC=CCC1` (stereo not given) [4-vinyl-1-cyclohexene] yielded a flash point of 16 °C.
Work on `Cn1cccc1` [1-methylpyrrole] yielded a flash point of 15 °C.
Compound `CCCCCCCCN` [octylamine] has a flash point of 60 °C.
In the case of `COC1C=CC(OC)O1` (stereo not given) [2,5-dimethoxy-2,5-dihydrofuran], the flash point was 51 °C.
For `O=CC=Cc1ccccc1` [cinnamaldehyde], the flash point was 71 °C.
For `C=CC(=O)OCC(CC)CCCC` (stereo not given) [2-ethylhexyl acrylate], the flash point was 86 °C.
`O=C1OC(=O)c2ccccc21` [phthalic anhydride] showed a flash point of 152 °C.
Work on `CCCOCCC` [n-propyl ether] yielded a flash point of -28 °C.
Compound `CCCC(=O)OC(=O)CCC` [butyric anhydride] has a flash point of 87 °C.
With `CC(C)OC(C)C` [isopropyl ether] the flash point was -29 °C.
`CCCOC(=O)CCC` [propyl butyrate] gave a flash point of 37 °C.
`CC1CCCC(O)C1` (stereo not given) [3-methylcyclohexanol] gave a flash point of 62 °C.
In the case of `Clc1ccccc1Cl` [1,2-dichlorobenzene], the flash point was 67 °C.
For `COC` [dimethylether], the flash point was -83 °C.
In the case of `OCCCO` [1,3-propanediol], the flash point was 131 °C.
In the case of `CC(C)(N)CO` [2-amino-2-methyl-1-propanol], the flash point was 67 °C.
For `C=CCOC(C)=O` [allyl acetate], the flash point was 6 °C.
In the case of `NC1CCC1` [cyclobutylamine], the flash point was -4 °C.
For `CCCCCCCCl` [1-chloroheptane], the flash point was 41 °C.
`CC=O` [ethanal] gave a flash point of -39 °C.
In the case of `CCSSCC` [diethyl disulfide], the flash point was 40 °C.
`C=CCCCCCC` [1-octene] gave a flash point of 21 °C.
`Fc1ccccc1` [fluorobenzene] showed a flash point of -15 °C.
`CCCCOC` [1-methoxybutane] showed a flash point of -10 °C.
Work on `CCC(C)I` (stereo not given) [2-iodobutane] yielded a flash point of 23 °C.
`CCCCC(C)CC` (stereo not given) [3-methylheptane] gave a flash point of 7 °C.
`CC(=O)OC(C)C` [isopropyl acetate] gave a flash point of 2 °C.
In the case of `C=C(C)C#N` [methacrylonitrile], the flash point was 1 °C.
`CC(=O)C(C)C` [3-methyl-2-butanone] gave a flash point of 6 °C.
With `CCc1ccc(Cl)cc1` [1-chloro-4-ethylbenzene] the flash point was 64 °C.
Compound `Cc1cccs1` [2-methylthiophene] has a flash point of 7 °C.
With `CCCCCCI` [1-iodohexane] the flash point was 67 °C.
In the case of `CCC(C)(C)O` [2-methyl-2-butanol], the flash point was 21 °C.
In the case of `CSCCC=O` [4-thiapentanal], the flash point was 58 °C.
With `CCCC(=O)OCC` [ethyl butyrate] the flash point was 19 °C.
In the case of `CCC(C)C(CC)CC` (stereo not given) [3-methyl-4-ethylhexane], the flash point was 24 °C.
`CC(=O)O` [ethanoic acid] showed a flash point of 39 °C.
Work on `CCCC(=O)O` [n-butyric acid] yielded a flash point of 69 °C.
`C=CCCCCO` [5-hexen-1-ol] showed a flash point of 47 °C.
`SCCCCCS` [1,5-pentanedithiol] showed a flash point of 95 °C.
`Cc1cccc2ccccc12` [1-methylnaphthalene] gave a flash point of 82 °C.
Compound `CS(C)=O` [dimethylsulfoxide] has a flash point of 88 °C.
Work on `O=C1C=CCCC1` [2-cyclohexen-1-one] yielded a flash point of 34 °C.
For `C=CC(C)C` [3-methyl-1-butene], the flash point was -57 °C.
Compound `CC(C)(C)C#N` [2,2-dimethylpropanenitrile] has a flash point of 4 °C.
`CCCCC(C=O)CC` (stereo not given) [2-ethylhexanal] gave a flash point of 46 °C.
Compound `CC(C)CCCO` [4-methyl-1-pentanol] has a flash point of 51 °C.
For `CCCCCOCCCCC` [dipentylether], the flash point was 57 °C.
With `CC=NO` [acetaldoxime] the flash point was 36 °C.
`CC(=O)CC(=O)OC(C)(C)C` [t-butyl acetoacetate] gave a flash point of 60 °C.
For `C=CCCC=C` [1,5-hexadiene], the flash point was -27 °C.
Work on `Cc1ccc(Cl)cc1` [4-chlorotoluene] yielded a flash point of 49 °C.
With `CC(C)(C)c1ccccc1` [t-butylbenzene] the flash point was 60 °C.
For `CC(O)CCC(C)O` (stereo not given) [2,5-hexanediol], the flash point was 101 °C.
With `CCCCON=O` [n-butyl nitrite] the flash point was -13 °C.
`CCCC(C)CC` (stereo not given) [3-methylhexane] gave a flash point of -3 °C.
With `CCC(O)CO` (stereo not given) [1,2-butanediol] the flash point was 93 °C.
`Cc1cccnc1` [3-picoline] gave a flash point of 40 °C.
Work on `C=CCI` [3-iodo-1-propene] yielded a flash point of 18 °C.
In the case of `CC=C1CC2C=CC1C2` (stereo not given) [5-ethylidene-2-norbornene], the flash point was 38 °C.
`CCC(=O)CC(C)CC` (stereo not given) [5-methyl-3-heptanone] gave a flash point of 43 °C.
`CCN` [ethylamine] showed a flash point of -17 °C.
`CN(CCO)CCO` [methyldiethanolamine] showed a flash point of 138 °C.
With `CCN(C)CC` [N,N-diethylmethylamine] the flash point was -23 °C.
Compound `CCCCCCCCCC` [n-decane] has a flash point of 51 °C.
Compound `CCCCCCCCCC(C)=O` [2-undecanone] has a flash point of 89 °C.
Compound `Clc1cccc(Cl)c1` [m-dichlorobenzene] has a flash point of 63 °C.
Compound `CC(=O)c1ccccc1` [acetophenone] has a flash point of 82 °C.
Compound `c1ccc2occc2c1` [benzofuran] has a flash point of 56 °C.
In the case of `CCCCC#N` [valeronitrile], the flash point was 40 °C.
For `ClCC(Cl)(Cl)Cl` [1,1,1,2-tetrachloroethane], the flash point was 47 °C.
For `Oc1ccc(Cl)cc1` [4-chlorophenol], the flash point was 115 °C.
In the case of `CCCCCCCCCC(C)O` (stereo not given) [2-undecanol], the flash point was 107 °C.
With `CCOC(OCC)OCC` [triethoxymethane] the flash point was 30 °C.
`CCCCOCC` [butyl ethyl ether] showed a flash point of -5 °C.
For `CC(C)C=O` [2-methyl-1-propanal], the flash point was -25 °C.
In the case of `Cc1ccsc1` [3-methylthiophene], the flash point was 11 °C.
In the case of `CCC(C)(C)OC` [methyl tert-pentyl ether], the flash point was -11 °C.
Work on `CCC1=NCCO1` [2-ethyloxazoline] yielded a flash point of 29 °C.
For `CCCCCCCF` [1-fluoroheptane], the flash point was 13 °C.
For `Cc1cc(C)cc(C)c1` [mesitylene], the flash point was 50 °C.
`CC1CCCO1` (stereo not given) [2-methyltetrahydrofuran] gave a flash point of -11 °C.
With `CC=CC#N` [2-butenenitrile] the flash point was 20 °C.
In the case of `CC(C)COC=O` [isobutyl formate], the flash point was 10 °C.
For `NC1CCCCC1` [cyclohexylamine], the flash point was 28 °C.
For `CCCC=O` [butyraldehyde], the flash point was -6 °C.
Work on `CCC=O` [propionaldehyde] yielded a flash point of -40 °C.
For `c1cncnc1` [pyrimidine], the flash point was 31 °C.
`CCS` [ethanethiol] showed a flash point of -48 °C.
For `CCC(C)(C)O.CCC(C)(C)O` [tert-amyl alcohol (2-methyl-2-butanol)], the flash point was 20 °C.
`C#CCCCCl` [5-chloro-1-pentyne] gave a flash point of 15 °C.
`C=CCC(C)C` [4-methyl-1-pentene] showed a flash point of -31 °C.
`CNCCO` [2-methylaminoethanol] gave a flash point of 71 °C.
With `CC(=O)OC(C)=O` [acetic anhydride] the flash point was 49 °C.
For `Cc1cc(C)nc(C)c1` [2,4,6-trimethylpyridine], the flash point was 57 °C.
Compound `CN` [methylamine] has a flash point of -62 °C.
`CCC(C)O` (stereo not given) [sec-butanol] showed a flash point of 26 °C.
For `CCCC#N` [n-butyronitrile], the flash point was 16 °C.
`CCCCCCCC#N` [octanenitrile] showed a flash point of 73 °C.
`CC(C)C(C)S` (stereo not given) [3-methyl-2-butanethiol] gave a flash point of 19 °C.
In the case of `Cc1ccc2ccccc2c1` [2-methylnaphthalene], the flash point was 97 °C.
Compound `SCCS` [1,2-ethanedithiol] has a flash point of 50 °C.
For `NCCCN` [1,3-propanediamine], the flash point was 48 °C.
Compound `C=CCCCCCCCCO` [9-decen-1-ol] has a flash point of 119 °C.
Compound `C=C(Cl)Cl` [1,1-dichloroethylene] has a flash point of -25 °C.
For `CC(C)(C)CC(=O)O` [3,3-dimethylbutanoic acid], the flash point was 88 °C.
Work on `CCC(C)OC(C)=O` (stereo not given) [sec-butyl acetate] yielded a flash point of 16 °C.
With `C=CC#N` [acrylonitrile] the flash point was -1 °C.
Work on `OCCCCO` [1,4-butanediol] yielded a flash point of 135 °C.
In the case of `COC(=O)c1ccccc1O` [methyl salicylate], the flash point was 96 °C.
`CC(C)C1CCCCC1` [isopropylcyclohexane] gave a flash point of 35 °C.
With `C1CCNCC1.Cl` [piperidine hydrochloride] the flash point was 65 °C.
`C=CC(=O)OCC` [ethyl acrylate] gave a flash point of 9 °C.
For `OCc1ccccc1` [benzyl alcohol], the flash point was 93 °C.
`O=C(OCc1ccccc1)c1ccccc1` [benzyl benzoate] showed a flash point of 147 °C.
With `COC(OC)OC` [trimethoxymethane] the flash point was 15 °C.
Work on `OC1CCCC1` [cyclopentanol] yielded a flash point of 51 °C.
`CC(=O)C=C(C)C` [mesityl oxide] gave a flash point of 25 °C.
Compound `OC1CCCCCC1` [cycloheptanol] has a flash point of 71 °C.
`CC(=O)CC(C)=O` [2,4-pentanedione] gave a flash point of 34 °C.
`C/C=C/C(=O)O` [crotonic acid] gave a flash point of 88 °C.
With `CC(N)CN` (stereo not given) [1,2-propanediamine] the flash point was 33 °C.
`CC(=O)OCCC(C)C` [isopentyl acetate] gave a flash point of 25 °C.
For `CCOC(=O)/C=C/C(=O)OCC` [diethyl fumarate], the flash point was 91 °C.
Work on `CCCCCc1ccccc1` [pentylbenzene] yielded a flash point of 65 °C.
With `CC1CCCCC1C` (stereo not given) [1,2-dimethylcyclohexane] the flash point was 15 °C.
For `CC(=O)CCC(C)C` [5-methyl-2-hexanone], the flash point was 36 °C.
Work on `CC(C)(C)SC(C)(C)C` [di-t-butyl sulfide] yielded a flash point of 48 °C.
Compound `OCc1ccco1` [furfuryl alcohol] has a flash point of 65 °C.
Work on `Clc1ccccc1` [chlorobenzene] yielded a flash point of 27 °C.
In the case of `N#CCCCCC#N` [1,4-dicyanobutane], the flash point was 159 °C.
Work on `CC(C)OCCO` [2-isopropoxyethanol] yielded a flash point of 43 °C.
`C1CCCNCC1` [hexamethyleneimine] showed a flash point of 18 °C.
For `CC(C)(C)C1CCCCC1` [t-butylcyclohexane], the flash point was 42 °C.
With `CCCCCCCC(C)=O` [2-nonanone] the flash point was 69 °C.
